These results are taken from US20050267182A1, “Urea derivatives as FLT-3 modulators” (Ambit Biosciences Corporation, priority 2003, published 2005).

As a reminder, the IC50 is the concentration at which inhibition is half-maximal. Read a high IC50 as lower potency.

Each structure is given as a SMILES string.

One experiment relates to CS0005. Put plainly: Cell Assay: CS0005. The class given is cell-based. The settings on record: cell assay code CS0005.
For another experiment, the system named is CS0002. Kind of experiment: Cell Assay: CS0002. The class given is cell-based. Conditions: cell assay code CS0002.
The target of the next experiment is T1, FLT3 (Homo sapiens, UniProt P36888).
T1 construct: FLT3(DKIN); made in house
T1 sequence (P36888 610-943 limits assumed): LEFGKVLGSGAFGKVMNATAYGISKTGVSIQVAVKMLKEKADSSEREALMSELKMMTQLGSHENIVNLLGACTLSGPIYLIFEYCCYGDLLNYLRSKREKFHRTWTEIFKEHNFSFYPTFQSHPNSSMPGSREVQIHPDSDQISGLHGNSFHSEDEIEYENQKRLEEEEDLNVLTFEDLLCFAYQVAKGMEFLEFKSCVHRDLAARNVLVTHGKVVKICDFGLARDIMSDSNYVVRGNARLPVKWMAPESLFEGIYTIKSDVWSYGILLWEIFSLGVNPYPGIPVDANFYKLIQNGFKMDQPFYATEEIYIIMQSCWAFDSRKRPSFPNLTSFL
Kind of experiment: Binding constant (Kd) measurement, phage-displayed kinase competition binding assay. The settings on record: for Binding Assay: FLT3(JMminus): FLT3(JMminus) construct; for Binding Assay: FLT3(DKIN): FLT3(DKIN) construct. From the text: Binding Constant (Kd) Measurements for Small-Molecule-Kinase Interactions
The term “ND” represents non-determined values.

For the next experiment, the system named is MV4,11 cells. Kind of experiment: FLT3 assay using MV4,11 cells (cellular proliferation, MTS). Conditions: cell assay code CS0001. Type of experiment: cell-based, human. The essentials: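 MV4,11 AML cells, […] switch to DMEM/10% FBS overnight, plated at 10,000 cells/well and exposed to serially diluted compounds in duplicate for 3 days at 37° C., 5% CO2. Proliferation read by MTS added for 2 h.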

Regarding `CC(C)(C)c1cc(NC(=O)Nc2ccc(C(=O)Nc3nccnc3N)cc2)no1` [Compound N157], the “Cell Assay: CS0005:IC50” value in the experiment on CS0005 was “+ + + +”. Also, in the experiment on CS0002, the IC50 was greater than 10 µM. Further, the “Binding Assay: FLT3(JMminus)” value on FLT3 is “+ + + +”. The “Cell Assay: CS0001:IC50” value in the experiment with MV4,11 cells is given as “+ + + +”.
For the molecule `Cc1cnc(C(=O)Nc2ccc(NC(=O)Nc3cc(C(C)(C)C)on3)cc2)cn1` [Compound O2], in the experiment on CS0005, the “Cell Assay: CS0005:IC50” value was “+ + + +”. In the experiment on CS0002, this molecule gave an IC50 greater than 10 µM. On FLT3, the “Binding Assay: FLT3(DKIN)” value is reported as “+ + + +”. The “Cell Assay: CS0001:IC50” value with MV4,11 cells is reported as “+ + + +”.
Turning to `Cn1cc(C(=O)Nc2ccc(NC(=O)Nc3cc(C(C)(C)C)on3)cc2)c2ccccc21` [Compound N119], the “Cell Assay: CS0005:IC50” value in the experiment with CS0005 is “+ + + +”. In addition, in the experiment on CS0002, the “Cell Assay: CS0002:IC50” value is on record as “+ +”. On FLT3, the “Binding Assay: FLT3(DKIN)” value is recorded as “+ + + +”. Besides, the “Cell Assay: CS0001:IC50” value in the experiment with MV4,11 cells is “+ + + +”.
Regarding `CC(C)(C)c1cc(NC(=O)Nc2ccc(NC(=O)c3cnc4ccccc4c3)cc2)no1` [Compound N108], the “Cell Assay: CS0005:IC50” value in the experiment on CS0005 is listed as “+ + + +”. The “Cell Assay: CS0002:IC50” value in the experiment with CS0002 is on record as “+ +”. Further, on FLT3, the “Binding Assay: FLT3(DKIN)” value is “+ + + +”. In addition, the “Cell Assay: CS0001:IC50” value with MV4,11 cells was “+ + + +”.
As for `CN(C)c1ccc(C(=O)Nc2ccc(NC(=O)Nc3cc(C(C)(C)C)on3)cc2)cn1` [Compound N159], the “Cell Assay: CS0005:IC50” value in the experiment on CS0005 is recorded as “+ + + +”. In addition, the “Cell Assay: CS0002:IC50” value with CS0002 is given as “+ +”. Also, the “Binding Assay: FLT3(JMminus)” value at FLT3 is reported as “+ + + +”. Further, the “Cell Assay: CS0001:IC50” value in the experiment on MV4,11 cells is “+ + + +”.
For `CC(C)(C)c1cc(NC(=O)Nc2ccc(C(=O)Nc3ccc(OCC4CCC4)cc3)cc2)no1` [Compound N100], the “Cell Assay: CS0005:IC50” value in the experiment on CS0005 is “+ + + +”. Also, in the experiment on CS0002, the “Cell Assay: CS0002:IC50” value is given as “+ +” and the IC50 was greater than 10 µM. The “Binding Assay: FLT3(DKIN)” value on FLT3 is listed as “+ + + +”. Further, the “Cell Assay: CS0001:IC50” value with MV4,11 cells is on record as “+ + + +”.
`Cc1cnc(C(=O)Nc2ccc(NC(=O)Nc3cc(C(C)(C)C)on3)cc2)c(C(=O)O)n1` [Compound N160]: the “Cell Assay: CS0005:IC50” value with CS0005 is listed as “+ + + +”. Also, the IC50 with CS0002 was greater than 10 µM. The “Binding Assay: FLT3(JMminus)” value on FLT3 was “+ + + +”. Moreover, in the experiment with MV4,11 cells, the “Cell Assay: CS0001:IC50” value was “+ + + +”.
As to `CC(C)(C)c1cc(NC(=O)Nc2ccc(NC(=O)c3ncccc3O)cc2)no1` [Compound N134], the “Cell Assay: CS0005:IC50” value in the experiment with CS0005 is given as “+ + + +”. The “Cell Assay: CS0002:IC50” value in the experiment with CS0002 is “+ +”. For the same molecule, at FLT3, the “Binding Assay: FLT3(DKIN)” value is “+ + + +” and the “Binding Assay: FLT3(JMminus)” value is listed as “+ + + +”. Besides, at FLT3 (FLT3(JMplus) construct), the “Binding Assay: FLT3(JMplus)” value is “+ + +”. Further, the “Cell Assay: CS0001:IC50” value in the experiment with MV4,11 cells is listed as “+ + + +”.
In the case of `CC(C)(C)c1cc(NC(=O)Nc2ccc(OCc3ccc4ccccc4c3)cc2)no1` [Compound G3], in the experiment with CS0005, the “Cell Assay: CS0005:IC50” value is given as “+ + + +”. Further, in the experiment on CS0002, the “Cell Assay: CS0002:IC50” value is “+ +”. In addition, the “Binding Assay: FLT3(DKIN)” value at FLT3 is given as “+ + + +”. Further, the “Cell Assay: CS0001:IC50” value in the experiment on MV4,11 cells is “+ + + +”.
`Cc1ccc(C(=O)Nc2ccc(NC(=O)Nc3cc(C(C)(C)C)on3)cc2)cc1` [Compound N92]: in the experiment with CS0005, the “Cell Assay: CS0005:IC50” value is “+ + + +”. In the experiment on CS0002, this molecule returned an IC50 greater than 10 µM. Besides, the “Binding Assay: FLT3(DKIN)” value on FLT3 is “+ + + +”. Also, in the experiment on MV4,11 cells, the “Cell Assay: CS0001:IC50” value is reported as “+ + + +”.
Regarding `C=N/C(=N\C)Oc1cccc(C(=O)Nc2ccc(NC(=O)Nc3cc(C(C)(C)C)on3)cc2)c1` [Compound N74], in the experiment on CS0005, the “Cell Assay: CS0005:IC50” value was “+ + + +”. In addition, the “Cell Assay: CS0002:IC50” value in the experiment with CS0002 is given as “+ +”. Further, at FLT3, the “Binding Assay: FLT3(JMminus)” value was “+ + + +”. Further, the “Cell Assay: CS0001:IC50” value in the experiment with MV4,11 cells is on record as “+ + + +”.
As to `CC(C)(C)c1cc(NC(=O)Nc2ccc(NC(=O)c3cc4cc(Br)ccc4s3)cc2)no1` [Compound N126], the “Cell Assay: CS0005:IC50” value with CS0005 is recorded as “+ + + +”. For the same molecule, in the experiment on CS0002, the “Cell Assay: CS0002:IC50” value is given as “+ + +”. The “Binding Assay: FLT3(DKIN)” value on FLT3 is “+ + + +”. Besides, in the experiment on MV4,11 cells, the “Cell Assay: CS0001:IC50” value was “+ + + +”.
`CC(C)(C)c1cc(NC(=O)Nc2ccc(NC(=O)c3cc(N4CCOCC4)nc(N4CCOCC4)n3)cc2)no1` [Compound N54]: in the experiment with CS0005, the “Cell Assay: CS0005:IC50” value is listed as “+ + + +”. In addition, in the experiment on CS0002, the “Cell Assay: CS0002:IC50” value is reported as “+ + +”. Besides, at FLT3, the “Binding Assay: FLT3(DKIN)” value was “+ + + +”. Further, in the experiment on MV4,11 cells, the “Cell Assay: CS0001:IC50” value is reported as “+ + + +”.
Turning to `CC(C)(C)c1cc(NC(=O)Nc2ccc(NC(=O)c3cc4ccccc4[nH]3)cc2)no1` [Compound N161], the “Cell Assay: CS0005:IC50” value with CS0005 is recorded as “+ + + +”. In addition, the “Cell Assay: CS0002:IC50” value in the experiment on CS0002 is “+ +”. Further, the “Binding Assay: FLT3(JMminus)” value at FLT3 was “+ + + +”. Besides, in the experiment with MV4,11 cells, the “Cell Assay: CS0001:IC50” value is “+ + + +”.
